From ChEMBL document CHEMBL1909046, “DrugMatrix in vitro pharmacology data” come the findings set out here.

System in one experiment: not listed separately
Kind of experiment: DRUGMATRIX: GABAA, Muscimol, Central radioligand binding (ligand: [3H] Muscimol). The note with it: Not Active = under 50% inhibition at 10 µM. It is filed as cell membranes, Rattus norvegicus, Wistar, Brain, Membrane.
As for `C[C@]12CCC(=O)C=C1CC[C@@H]1[C@@H]2[C@@H](O)C[C@@]2(C)[C@H]1CC[C@]2(O)C(=O)CO` [HYDROCORTISONE], the IC50 result was “Not Active” and the Ki result is given as “Not Active”.

On to `C/C=C\c1ccc(O)c(OC)c1` [ISOEUGENOL], for which the IC50 entry is recorded as “Not Active” and the Ki result was “Not Active”.

Another experiment addresses T1, Calcitonin receptor (Homo sapiens, UniProt P30988).
T1 sequence (P30988 whole entry): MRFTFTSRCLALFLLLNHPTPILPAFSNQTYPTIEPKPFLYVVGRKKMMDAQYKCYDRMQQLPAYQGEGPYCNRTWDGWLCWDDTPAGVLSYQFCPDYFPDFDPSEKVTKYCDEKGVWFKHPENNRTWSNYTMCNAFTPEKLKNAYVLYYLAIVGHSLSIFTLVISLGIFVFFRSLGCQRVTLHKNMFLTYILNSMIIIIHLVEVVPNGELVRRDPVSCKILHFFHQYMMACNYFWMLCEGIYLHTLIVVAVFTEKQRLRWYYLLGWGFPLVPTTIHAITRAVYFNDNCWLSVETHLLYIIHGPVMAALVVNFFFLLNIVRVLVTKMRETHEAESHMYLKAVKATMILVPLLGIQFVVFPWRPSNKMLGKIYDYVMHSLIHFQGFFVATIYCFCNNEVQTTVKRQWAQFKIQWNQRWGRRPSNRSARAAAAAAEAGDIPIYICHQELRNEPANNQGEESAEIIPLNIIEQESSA
Assay: not given
Type of experiment: cell membranes, Membrane. The note with it: t47d.
For `C[C@]12CCC(=O)C=C1CC[C@@H]1[C@@H]2[C@@H](O)C[C@@]2(C)[C@H]1CC[C@]2(O)C(=O)CO` [HYDROCORTISONE], the IC50 entry is recorded as “Not Active”.

Turning to `C/C=C\c1ccc(O)c(OC)c1` [ISOEUGENOL], the IC50 result is “Not Active”.

System in a further experiment: not listed separately
Kind of experiment: DRUGMATRIX: Calcium Channel Type L, Phenylalkylamine radioligand binding (ligand: [3H] (-)-Desmethoxyverapamil (D-888)). It is filed as cell membranes, Rattus norvegicus, Wistar, Brain, Membrane. The note with it: Not Active = under 50% inhibition at 10 µM.
Turning to `C[C@]12CCC(=O)C=C1CC[C@@H]1[C@@H]2[C@@H](O)C[C@@]2(C)[C@H]1CC[C@]2(O)C(=O)CO` [HYDROCORTISONE], the IC50 result is “Not Active” and the Ki entry was “Not Active”.

Regarding `C/C=C\c1ccc(O)c(OC)c1` [ISOEUGENOL], the IC50 entry is on record as “Not Active” and the Ki result is recorded as “Not Active”.

The target in a further experiment is T2, Endothelin-1 receptor (Homo sapiens, UniProt P25101). Further: in other assays of this panel Not Active means under 50% inhibition at 10 µM.
T2 sequence (P25101 whole entry): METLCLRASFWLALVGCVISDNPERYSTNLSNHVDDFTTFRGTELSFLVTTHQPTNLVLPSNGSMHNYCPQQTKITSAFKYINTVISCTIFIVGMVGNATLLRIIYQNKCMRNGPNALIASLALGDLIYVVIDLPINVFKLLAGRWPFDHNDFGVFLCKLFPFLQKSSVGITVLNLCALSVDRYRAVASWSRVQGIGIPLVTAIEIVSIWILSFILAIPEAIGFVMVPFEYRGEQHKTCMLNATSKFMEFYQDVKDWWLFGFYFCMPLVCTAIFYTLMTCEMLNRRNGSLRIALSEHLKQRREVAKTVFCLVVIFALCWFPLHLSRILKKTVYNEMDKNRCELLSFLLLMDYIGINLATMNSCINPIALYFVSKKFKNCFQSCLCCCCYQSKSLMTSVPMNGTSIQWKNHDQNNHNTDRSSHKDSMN
Assay: not given
The note with it: cho-k1. Type of experiment: cell membranes, CHO-K1, Membrane.
With `C[C@]12CCC(=O)C=C1CC[C@@H]1[C@@H]2[C@@H](O)C[C@@]2(C)[C@H]1CC[C@]2(O)C(=O)CO` [HYDROCORTISONE], the IC50 result is “Not Active”.

With `C/C=C\c1ccc(O)c(OC)c1` [ISOEUGENOL], the IC50 result was “Not Active”.

In another experiment the target is Aldo-keto reductase family 1 member B1 (Rattus norvegicus, UniProt P07943). The experiment can be described thus: biochemical. Type of experiment: tissue-based, Lens of camera-type eye.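 Further: inhibition of aldose reductase enzyme activity, measured with DL-glyceraldehyde as the substrate; in other assays of this panel Not Active means under 50% inhibition at 10 µM.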
Settings: not given
With `C[C@]12CCC(=O)C=C1CC[C@@H]1[C@@H]2[C@@H](O)C[C@@]2(C)[C@H]1CC[C@]2(O)C(=O)CO` [HYDROCORTISONE], the IC50 result is “Not Active”.

As for `C/C=C\c1ccc(O)c(OC)c1` [ISOEUGENOL], the IC50 result is on record as “Not Active”.

In a further experiment the target is T3, Angiotensin-converting enzyme (Oryctolagus cuniculus, UniProt P12822).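 Further: enzymatic inhibition of angiotensin-converting enzyme measured with FAPGG as the substrate; in other assays of this panel Not Active means under 50% inhibition at 10 µM.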
T3 sequence (P12822 whole entry): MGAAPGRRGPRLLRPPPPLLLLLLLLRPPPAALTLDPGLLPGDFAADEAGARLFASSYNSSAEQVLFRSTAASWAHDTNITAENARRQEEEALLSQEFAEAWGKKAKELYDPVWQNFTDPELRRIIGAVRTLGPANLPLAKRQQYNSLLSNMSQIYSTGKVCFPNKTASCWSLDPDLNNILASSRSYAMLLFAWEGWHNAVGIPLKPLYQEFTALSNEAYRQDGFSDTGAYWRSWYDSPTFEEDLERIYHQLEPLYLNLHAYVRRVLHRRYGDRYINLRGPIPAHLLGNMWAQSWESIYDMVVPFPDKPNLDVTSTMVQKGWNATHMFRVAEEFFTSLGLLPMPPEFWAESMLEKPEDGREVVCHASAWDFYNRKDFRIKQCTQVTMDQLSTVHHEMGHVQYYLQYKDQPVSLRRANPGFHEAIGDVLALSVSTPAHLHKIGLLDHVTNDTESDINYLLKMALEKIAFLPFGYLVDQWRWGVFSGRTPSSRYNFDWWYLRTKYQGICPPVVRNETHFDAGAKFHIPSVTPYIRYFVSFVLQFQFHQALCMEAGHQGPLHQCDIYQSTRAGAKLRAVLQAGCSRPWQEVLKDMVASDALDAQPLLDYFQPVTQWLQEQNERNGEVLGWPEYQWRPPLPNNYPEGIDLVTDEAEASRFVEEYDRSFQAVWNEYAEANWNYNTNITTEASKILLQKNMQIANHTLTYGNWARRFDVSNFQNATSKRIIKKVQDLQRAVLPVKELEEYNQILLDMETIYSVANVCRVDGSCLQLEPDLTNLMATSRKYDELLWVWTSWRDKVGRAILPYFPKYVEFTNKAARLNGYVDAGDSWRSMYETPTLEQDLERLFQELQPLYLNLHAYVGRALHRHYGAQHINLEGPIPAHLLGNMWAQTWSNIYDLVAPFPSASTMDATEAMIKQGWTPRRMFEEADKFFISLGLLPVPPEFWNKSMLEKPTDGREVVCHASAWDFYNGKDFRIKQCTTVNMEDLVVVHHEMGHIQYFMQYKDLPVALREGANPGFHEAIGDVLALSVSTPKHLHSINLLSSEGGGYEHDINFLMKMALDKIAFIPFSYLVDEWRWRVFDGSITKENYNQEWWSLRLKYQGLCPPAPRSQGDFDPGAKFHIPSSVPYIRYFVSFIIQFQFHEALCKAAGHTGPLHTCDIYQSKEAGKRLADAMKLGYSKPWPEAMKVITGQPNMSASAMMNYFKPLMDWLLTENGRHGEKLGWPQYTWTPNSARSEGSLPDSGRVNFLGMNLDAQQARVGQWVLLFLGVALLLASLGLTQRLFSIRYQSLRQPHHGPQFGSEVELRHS
Assay: not given
Type of experiment: tissue-based, Lung.
Settings: not given
Consider `C[C@]12CCC(=O)C=C1CC[C@@H]1[C@@H]2[C@@H](O)C[C@@]2(C)[C@H]1CC[C@]2(O)C(=O)CO` [HYDROCORTISONE], for which the IC50 entry is reported as “Not Active”.

For the compound `C/C=C\c1ccc(O)c(OC)c1` [ISOEUGENOL], the IC50 result was “Not Active”.

System in another experiment: not listed separately
Kind of experiment: DRUGMATRIX: Glutamate, NMDA, Agonism radioligand binding (ligand: [3H] CGP-39653). It is filed as cell membranes, Rattus norvegicus, Wistar, Cerebral cortex, Membrane. The note with it: Not Active = under 50% inhibition at 10 µM.
In the case of `C[C@]12CCC(=O)C=C1CC[C@@H]1[C@@H]2[C@@H](O)C[C@@]2(C)[C@H]1CC[C@]2(O)C(=O)CO` [HYDROCORTISONE], the IC50 result is on record as “Not Active” and the Ki entry was “Not Active”.

For the compound `C/C=C\c1ccc(O)c(OC)c1` [ISOEUGENOL], the IC50 result is “Not Active” and the Ki entry is “Not Active”.

A further experiment deals with T4, D(4) dopamine receptor (Homo sapiens, UniProt P21917).
T4 sequence (P21917 whole entry): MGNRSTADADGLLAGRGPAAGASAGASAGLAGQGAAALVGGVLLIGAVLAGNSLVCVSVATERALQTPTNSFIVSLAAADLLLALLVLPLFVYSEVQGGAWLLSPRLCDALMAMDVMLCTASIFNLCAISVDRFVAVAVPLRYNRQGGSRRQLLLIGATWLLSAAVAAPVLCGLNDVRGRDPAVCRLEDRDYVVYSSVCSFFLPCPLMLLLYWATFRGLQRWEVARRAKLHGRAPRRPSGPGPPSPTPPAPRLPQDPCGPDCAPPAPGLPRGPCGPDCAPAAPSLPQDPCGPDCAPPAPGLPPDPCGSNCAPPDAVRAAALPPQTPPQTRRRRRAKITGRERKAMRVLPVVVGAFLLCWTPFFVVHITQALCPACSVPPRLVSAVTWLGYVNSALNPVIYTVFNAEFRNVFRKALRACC
The experiment can be described thus: DRUGMATRIX: Dopamine D4.2 radioligand binding (ligand: [3H] Spiperone). Type of experiment: cell membranes, CHO-K1, Membrane. The note with it: cho-k1; Not Active = under 50% inhibition at 10 µM.
On to `C[C@]12CCC(=O)C=C1CC[C@@H]1[C@@H]2[C@@H](O)C[C@@]2(C)[C@H]1CC[C@]2(O)C(=O)CO` [HYDROCORTISONE], for which the IC50 result is “Not Active”.

Turning to `C/C=C\c1ccc(O)c(OC)c1` [ISOEUGENOL], the IC50 result is given as “Not Active”.
